Data published in PMC12284294 (iScience, 2025).
Like-named read-outs stand apart in the source and are kept apart here. Ends that are not written are not given here.

Legend:
[1] = biological target: T1, FPR1 (Homo sapiens, UniProt P21462); type: cell-based
T1 construct: expressed in transfected cells; host or cells: HEK293T
T1 sequence (P21462 1-350): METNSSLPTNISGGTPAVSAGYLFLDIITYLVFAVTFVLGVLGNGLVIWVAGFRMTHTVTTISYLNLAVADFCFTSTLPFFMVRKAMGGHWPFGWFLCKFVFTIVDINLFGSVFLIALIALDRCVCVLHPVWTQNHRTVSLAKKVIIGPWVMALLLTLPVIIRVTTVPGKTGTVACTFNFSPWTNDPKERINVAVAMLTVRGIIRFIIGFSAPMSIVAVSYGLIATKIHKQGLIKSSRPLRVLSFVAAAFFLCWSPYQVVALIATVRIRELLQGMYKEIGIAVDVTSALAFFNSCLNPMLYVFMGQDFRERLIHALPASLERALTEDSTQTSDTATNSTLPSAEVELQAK

[2] = tested on: human polymorphonuclear granulocytes (PMN; neutrophils); type: cell-based; settings: SARS-CoV-2 omicron B.1.1.529 spike pool peptides, 10 µM, PMN, n=6
[3] = tested on: FPR1, FPR2, FPR3, PMN; type: cell-based, human
[4] = biological target: T2, Formyl peptide receptor 3 (human, UniProt P25089 1-353)
T2 chain: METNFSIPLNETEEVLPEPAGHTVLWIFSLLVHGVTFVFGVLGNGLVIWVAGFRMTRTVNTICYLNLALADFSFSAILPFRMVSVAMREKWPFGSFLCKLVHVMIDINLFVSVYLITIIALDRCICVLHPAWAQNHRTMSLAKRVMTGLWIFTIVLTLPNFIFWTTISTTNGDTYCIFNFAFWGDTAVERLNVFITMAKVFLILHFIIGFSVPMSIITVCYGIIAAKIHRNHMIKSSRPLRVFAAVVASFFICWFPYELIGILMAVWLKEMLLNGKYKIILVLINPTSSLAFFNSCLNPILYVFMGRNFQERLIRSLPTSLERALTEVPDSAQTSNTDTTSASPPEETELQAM

[5] = biological target: T3, Formyl peptide receptor 2 (human, UniProt P25090 1-351)
T3 chain: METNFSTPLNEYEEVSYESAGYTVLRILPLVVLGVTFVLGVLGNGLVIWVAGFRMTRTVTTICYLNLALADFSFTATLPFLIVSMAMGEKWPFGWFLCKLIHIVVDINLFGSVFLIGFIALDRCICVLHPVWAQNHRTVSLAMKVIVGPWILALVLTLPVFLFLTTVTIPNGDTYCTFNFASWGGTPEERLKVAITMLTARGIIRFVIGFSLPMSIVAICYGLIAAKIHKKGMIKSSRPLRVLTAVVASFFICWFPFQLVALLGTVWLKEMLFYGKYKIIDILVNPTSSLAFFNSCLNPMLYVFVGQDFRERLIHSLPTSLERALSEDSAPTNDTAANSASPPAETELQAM

[6] = biological target: T4, Formyl peptide receptor 1 (human, UniProt P21462 1-350)
T4 chain: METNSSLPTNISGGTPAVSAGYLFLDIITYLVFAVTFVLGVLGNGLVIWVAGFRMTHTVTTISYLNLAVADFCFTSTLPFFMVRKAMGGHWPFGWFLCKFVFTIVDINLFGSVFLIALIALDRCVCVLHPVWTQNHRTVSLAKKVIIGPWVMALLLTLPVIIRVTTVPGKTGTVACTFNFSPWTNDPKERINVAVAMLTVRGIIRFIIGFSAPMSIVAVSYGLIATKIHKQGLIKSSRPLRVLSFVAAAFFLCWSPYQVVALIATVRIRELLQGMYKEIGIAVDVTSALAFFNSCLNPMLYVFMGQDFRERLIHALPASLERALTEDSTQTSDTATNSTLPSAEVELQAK

[7] = biological target: T5, Formyl peptide receptor 1 (human, UniProt P21462 1-350); settings: one partner purified
T5 sequence (looked up): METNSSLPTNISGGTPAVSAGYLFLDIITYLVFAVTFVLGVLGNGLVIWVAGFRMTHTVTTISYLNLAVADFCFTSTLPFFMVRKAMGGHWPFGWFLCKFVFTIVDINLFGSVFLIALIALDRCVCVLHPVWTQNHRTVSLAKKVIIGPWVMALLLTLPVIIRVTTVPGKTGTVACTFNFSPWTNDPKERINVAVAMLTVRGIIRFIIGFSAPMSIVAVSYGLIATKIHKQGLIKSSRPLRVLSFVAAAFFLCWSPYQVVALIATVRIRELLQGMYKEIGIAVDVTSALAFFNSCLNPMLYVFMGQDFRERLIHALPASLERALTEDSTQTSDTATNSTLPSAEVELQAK

[8] = biological target: T6, Formyl peptide receptor 2 (human, UniProt P25090 1-351); settings: one partner purified
T6 sequence (looked up): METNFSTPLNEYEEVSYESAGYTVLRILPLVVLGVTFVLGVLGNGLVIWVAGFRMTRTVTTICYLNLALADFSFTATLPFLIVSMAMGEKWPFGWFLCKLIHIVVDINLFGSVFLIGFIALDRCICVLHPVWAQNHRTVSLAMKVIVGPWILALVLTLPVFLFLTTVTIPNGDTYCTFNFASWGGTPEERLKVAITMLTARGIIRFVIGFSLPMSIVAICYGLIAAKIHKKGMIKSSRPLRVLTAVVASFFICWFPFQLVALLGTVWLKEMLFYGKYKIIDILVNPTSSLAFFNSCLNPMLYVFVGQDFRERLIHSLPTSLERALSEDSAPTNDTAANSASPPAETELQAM

[9] = biological target: T7, Formyl peptide receptor 3 (human, UniProt P25089 1-353); settings: one partner purified
T7 sequence (looked up): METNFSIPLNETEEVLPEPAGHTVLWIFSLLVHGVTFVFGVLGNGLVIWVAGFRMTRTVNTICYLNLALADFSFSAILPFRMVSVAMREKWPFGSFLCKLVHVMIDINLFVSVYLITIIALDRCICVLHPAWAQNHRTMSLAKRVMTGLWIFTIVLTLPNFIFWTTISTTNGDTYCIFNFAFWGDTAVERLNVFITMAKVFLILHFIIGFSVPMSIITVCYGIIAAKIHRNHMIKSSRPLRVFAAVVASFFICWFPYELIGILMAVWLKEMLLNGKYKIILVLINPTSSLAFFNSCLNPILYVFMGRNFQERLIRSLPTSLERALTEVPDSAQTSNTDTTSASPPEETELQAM

[10] = biological target: T2, Formyl peptide receptor 3
[11] = biological target: T3, Formyl peptide receptor 2
[12] = biological target: T4, Formyl peptide receptor 1
[13] = […], it matches an identified peptide or IgG epitope of COVID-19 patients

## ITNLCPFDEVFNATR
[1]
  non-activators of FPR1 and PMNs: FPR1: non-activators of FPR1 and PMNs
[2]
  non-activators of FPR1 and PMNs: PMNs: non-activators of FPR1 and PMNs
[3]; [13]
  Match with activator (region): Receptor: FPR3

## KVSGNYNYLYRLFRK
[1]
  non-activators of FPR1 and PMNs: FPR1: non-activators of FPR1 and PMNs
[2]
  non-activators of FPR1 and PMNs: PMNs: non-activators of FPR1 and PMNs
[3]; [13]
  Match with activator (region): Receptor: FPR3

## NFNFNGLKGTGVLTE
[1]
  non-activators of FPR1 and PMNs: FPR1: non-activators of FPR1 and PMNs
[2]
  non-activators of FPR1 and PMNs: PMNs: non-activators of FPR1 and PMNs
[3]; [13]
  Match with activator (region): Receptor: FPR3

## QVKQIYKTPPIKYFG
[2]
  significant PMN activators (group of the spike peptide pool screening): significant PMN activators
[3]
  Match with activator (region): Receptor: PMN+ FPR2
[3]; [13]
  Match with activator (region): Receptor: PMN + FPR2

B1: fluorescently labeled HCoV-229E MPR peptide CV1 (peptide)
chain: ETYIKWPWWVWL
modifications: also: fluorescently labeled
[4]
  Kd: 0.366 µM
[5]
  Kd: 0.287 µM
[6]
  Kd: 0.0084 µM

B2: fluorescently labeled N-terminally truncated HCoV-HKU-1 MPR peptide CV2∗ (peptide)
chain: MYVKWPWYVWLL
modifications: also: fluorescently labeled
[7]
  fold lower binding affinity than the other MPR peptides: ~10 fold
[8]
  fold lower binding affinity than the other MPR peptides: ~10 fold
[9]
  fold lower binding affinity than the other MPR peptides: ~10 fold
[10]
  Kd: > 1 µM
[11]
  Kd: > 1 µM
[12]
  Kd: 0.0669 µM

B3: fluorescently labeled SARS-CoV MPR peptide CV3 (peptide)
chain: EQYIKWPWYVWL
modifications: also: fluorescently labeled
[4]
  Kd: 0.756 µM
[5]
  Kd: 0.337 µM
[6]
  Kd: 0.0073 µM
